Results taken from patent US20240342199A1, “COMBINATION THERAPIES TARGETING MITOCHONDRIA FOR CANCER THERAPY” (The Wistar Institute of Anatomy and Biology, priority 2014, published 2024).
Entries after “also recorded” stand apart in the source; their conditions may differ.

Assays:
c-Src = c-Src (Homo sapiens, UniProt P12931); settings: concentration of 50 μM; cited from earlier work
PKC = settings: concentration of 50 μM; cited from earlier work
MAP kinase = settings: concentration of 50 μM; cited from earlier work
PI4 kinase = settings: concentration of 50 μM; cited from earlier work
PI3 kinase = settings: concentration of 50 μM; cited from earlier work
GBM organotypic cultures = experiment: Tumor kinome transcription (OpenArray real-time PCR) in GBM organotypic cultures; format: cell-based, Human
Protocol: Organotypic cultures. Short-term organotypic cultures from the different patient samples were established as described previously. […]
Bioinformatics analysis. Transcriptional changes in the human kinome following PI3K inhibition were analyzed using OpenArray real-time PCR amplification. […] Ct values from the experiment were exported from BioTrove OpenArray Real-Time qPCR Analysis Software v1.0.4. ΔΔCt value method was used to calculate fold changes between sample pairs with endogenous control Ct value calculated as average among 15 endogenous controls on the array: ALAS1, B2M, CASC3, G6PD, GAPDH, GUSB, HMBS, HPRT1, IPO8, POLR2A, PPIA, RPLP0, TFRC, UBE2D2, and YWHAZ. P-values for differential expression were calculated using fold changes of 15 endogenous controls as a null distribution.

[1] = test system: Ser473-phosphorylated Akt (pAkt); experiment: Ser473-phosphorylated Akt in patient-derived organotypic cultures; format: cell-based, Human; settings: Gamitrinib added to PI3K inhibitor-treated tumor organoids
Protocol: Organotypic cultures. Short-term organotypic cultures from the different patient samples were established as described previously. Briefly, precise thick tissue slices (300 μm) were obtained from each case by vibratome serial cutting (VT1200, Leica Microsystems, Milan, Italy), and cultured in six-well plates on organotypic inserts (Millicell PICM ORG, Merck Millipore) for up to 48 h in 1 ml of Ham-F12 complete medium supplemented with vehicle (DMSO, 2.5 μl), pan-PI3K inhibitor LY294002 (50 or 100 μM) or PX-886 (2.5, 5 or 10 μM), or mitochondrial-targeted small molecule Heat Shock Protein-90 (Hsp90) inhibitor, 10 Gamitrinib (GA mitochondrial matrix inhibitor, 10 or 25 μM), or the combination of PX-886 plus Gamitrinib (each agent used at 10 μM). At the end of the experiment, one tissue slice per condition was formalin-fixed and paraffin-embedded (FFPE), and processed for morphological and immunohistochemical analysis. An additional tissue slice collected at the end of the experiment was embedded in optimal cutting temperature, and snap-frozen for molecular or immunofluorescence studies.

LN229 cells [2] = experiment: Bliss independence analysis of Gamitrinib and kinase inhibitors; format: cell-based, Human; settings: Gamitrinib with NVP-BEZ235, GDC-0941 or AZD6482, 7×7 matrix, 18 h
Protocol: A synergistic anticancer activity of the combination of Gamitrinib and selected kinase inhibitors was further assessed by Bliss independence analysis. For these experiments, LN229 cells were treated with Gamitrinib (concentration range 2-0.008 μmol/L) and selected kinase inhibitors (concentration range 2-0.008 μmol/L) in a 7×7 matrix for 18 h at 37° C. Cell viability was measured by addition of resazurin, and the fractional growth inhibition under the various conditions tested was determined as described above. The Bliss expectation (E) for a combined response was calculated by the equation: E=(A+B)−(A×B) where A and B are the fractional growth inhibitions of drug A and B at a given concentration. […] Each synergy experiment was done two independent times, in duplicate.

LN229 cells [3] = experiment: High-throughput screening: cell viability (resazurin), compounds with DMSO or Gamitrinib; format: cell-based, Human; settings: Gamitrinib 1 μM in combination
Protocol: High-throughput screening and synergy experiments. Compounds for the molecular targeted cancer therapeutics were either purchased from SelleckChem or acquired under Material Transfer Agreement (MTA) with the Wistar Institute MTA. Compounds were suspended in DMSO. The purity and identity of the compounds was confirmed by LC/MS for a fraction of the compounds. Source plates with a 10 point dilution series (5-fold dilutions, ranging from 10-0.0001 μmol/L) were prepared for screening. […] Cell viability was determined by the addition of resazurin to a final concentration of 50 μM and incubation for 8 h. Fluorescence intensity (excitation, 560 nm, emission, 590 nm) was determined on an Envision Xcite Multilabel Reader (Perkin-Elmer), and the fractional growth inhibition was determined by normalizing assay wells to the aggregated average responses of positive control (10 μM doxorubicin) and negative control (0.2% DMSO) treatments (n=12).

LN229 cells [4] = experiment: Global metabolomics screening; format: cell-based, Human; settings: 10 μM for 48 h
Protocol: Metabolomics screen and Reverse Phase Protein Array (RPPA). Changes in expression of 301 individual metabolites in LN229 cells treated with PX-866 (10 μM for 48 h) were determined in a global metabolomics screening as described previously. For RPPA, PC3 or LN229 cells were treated with vehicle, PX-866 (10 μM) or the combination of PX-866 plus Gamitrinib (5 μM) for 24 h. Data in triplicate samples were normalized for protein loading, converted to linear values and then log2 transformed.
Statistical analysis. Data were analyzed using the two-sided unpaired/tests using a GraphPad software package (Prism 4.0) for Windows. Data are expressed as mean±SEM of replicates of a representative experiment out of at least two independent determinations. A p value of ≤0.05 was considered as statistically significant. For RPPA screens, the False Discovery Rate (FDR) values were estimated using Benjamini-Hochberg correction for multiple testing and changes with FDR<20% of at least 1.2 fold were called statistically significant. […] However, biochemicals that were detected in all samples from one or more groups, but not in samples from other groups, were assumed to be near the lower limit of detection in the groups in which they were not detected. In this case, the lowest detected level of these biochemicals was imputed for samples in which that biochemical was not detected. […]

PC3 or LN229 cells = experiment: Colony formation assay; format: cell-based, Human; settings: 10 μM, 12 days, compared with control cultures
Protocol: Mitochondrial integrity and cell viability. LN229 or U251 cells were treated with vehicle (DMSO), PI3K inhibitors, BEZ (0.5 μM) or LY294002 (50 μM), alone or combination with Gamitrinib (0.5-5 μM, respectively) for 24 h, and analyzed for changes in mitochondrial membrane potential by JC-1 staining and multiparametric flow cytometry, as described. For cell viability, LN229, U87 or U251 cells treated with vehicle, PI3K inhibitors BEZ or LY294002, or, alternatively, transfected with control cDNA or Δ-p85 dominant negative PI3K mutant, alone or in combination with Gamitrinib, were examined by a 3 (4,5-dimethyl-thyazoyl-2-yl)2,5 diphenyltetrazolium bromide (MTT) colorimetric assay. Changes in cell viability in LN229 cells exposed to PX-866 (0-25 μM) were monitored by Trypan blue staining, or, alternatively, MTT. For apoptosis, LN229 cells (1×10^6) treated with vehicle, Gamitrinib or PI3K inhibitors (BEZ, LY294002), alone or in combination for 24 h, were labeled for annexin V plus propidium iodide (PI) (BD Biosciences), and analyzed by multiparametric flow cytometry (BD), as described. Alternatively, cytosolic fractions isolated from treated tumor cells were analyzed for released cytochrome c, by Western blotting. For analysis of colony-forming ability, PC3 or LN229 cells were treated with vehicle (Veh) or PX-866 (10 μM) and analyzed in a colony formation assay after 12 days. […]

CypD = CypD level and Ser phosphorylation in reconstituted LN229 cells; format: cell-based, Human
Text: Mutant constructs were confirmed by DNA sequencing and transfected in CypD-depleted cells for reconstitution experiments. In some experiments, CypD depleted LN229 cells were transfected with WT or mutant CypD constructs and analyzed for bioenergetics (glucose utilization, oxygen consumption, ATP production) or cell viability (JC1 or Annexin V multiparametri staining, cytochrome c release) readouts.

Akt phosphorylation = Akt phosphorylation in tumor cell lines by Western blotting; format: cell-based, Human; settings: high (10 μM) and low (0.8 μM) concentrations, within 24 hours
LN229 or PC3 cells [5] = experiment: Analysis of bioenergetics (ATP, glucose, lactate, oxygen consumption); format: cell-based, Human
LN229 or PC3 cells [6] = experiment: Cell cycle, proliferation and viability after PI3K inhibition; format: cell-based, Human
Protocol: Mitochondrial integrity and cell viability. LN229 or U251 cells were treated with vehicle (DMSO), PI3K inhibitors, BEZ (0.5 μM) or LY294002 (50 μM), alone or combination with Gamitrinib (0.5-5 μM, respectively) for 24 h, and analyzed for changes in mitochondrial membrane potential by JC-1 staining and multiparametric flow cytometry, as described. For cell viability, LN229, U87 or U251 cells treated with vehicle, PI3K inhibitors BEZ or LY294002, or, alternatively, transfected with control cDNA or Δ-p85 dominant negative PI3K mutant, alone or in combination with Gamitrinib, were examined by a 3 (4,5-dimethyl-thyazoyl-2-yl)2,5 diphenyltetrazolium bromide (MTT) colorimetric assay. Changes in cell viability in LN229 cells exposed to PX-866 (0-25 μM) were monitored by Trypan blue staining, or, alternatively, MTT. For apoptosis, LN229 cells (1×10^6) treated with vehicle, Gamitrinib or PI3K inhibitors (BEZ, LY294002), alone or in combination for 24 h, were labeled for annexin V plus propidium iodide (PI) (BD Biosciences), and analyzed by multiparametric flow cytometry (BD), as described. Alternatively, cytosolic fractions isolated from treated tumor cells were analyzed for released cytochrome c, by Western blotting. For analysis of colony-forming ability, PC3 or LN229 cells were treated with vehicle (Veh) or PX-866 (10 μM) and analyzed in a colony formation assay after 12 days. Colonies were stained with crystal violet. In some experiments, LN229 cells treated with PX-866 (0-25 μM) were analyzed for DNA content by PI staining and flow cytometry.

[7] = test system: Akt2 (Ser474) in cytosol and mitochondria; experiment: Phosphorylated Akt in cytosol and mitochondrial extracts by Western blotting; format: cell-based, Human; settings: cytosol and mitochondrial extracts, 48 h
Protocol: Subcellular and submitochondrial fractionation. Mitochondrial fractions were isolated using an ApoAlertTM cell fractionation kit (CLONTECH), as described. Submitochondrial fractions comprising outer membrane (OM), inner membrane (IM), inter-membrane space (IMS) and matrix were prepared as described.

tumor cells = experiment: Senescence markers (SA-β-Gal, PML nuclear bodies); format: cell-based; settings: treated tumor cells
[8] = PX-866 (10 μM), AZD6482 (10 μM) or GDC0941 (2 μM) for 48 h

Chain of c-Src (P12931 whole entry, species assumed): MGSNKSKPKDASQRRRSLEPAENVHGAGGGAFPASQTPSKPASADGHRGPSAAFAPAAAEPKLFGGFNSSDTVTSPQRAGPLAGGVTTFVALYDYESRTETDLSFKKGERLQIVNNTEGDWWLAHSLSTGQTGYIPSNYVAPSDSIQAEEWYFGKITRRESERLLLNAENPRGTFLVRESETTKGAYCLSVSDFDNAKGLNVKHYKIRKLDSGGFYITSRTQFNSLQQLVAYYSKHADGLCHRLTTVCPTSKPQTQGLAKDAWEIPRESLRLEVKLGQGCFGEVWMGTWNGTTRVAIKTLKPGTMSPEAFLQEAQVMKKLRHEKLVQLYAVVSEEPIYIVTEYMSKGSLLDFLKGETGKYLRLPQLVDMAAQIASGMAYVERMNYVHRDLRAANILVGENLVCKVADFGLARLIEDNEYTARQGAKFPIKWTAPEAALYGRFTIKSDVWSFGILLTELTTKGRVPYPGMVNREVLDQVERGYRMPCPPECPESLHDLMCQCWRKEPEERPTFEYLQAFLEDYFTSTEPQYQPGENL

## O=c1cc(N2CCOCC2)oc2c(-c3ccccc3)cccc12 [LY294002, 2-(4-morpholinyl)-8-phenyl-4H-1-benzopyran-4-one]
c-Src
  inhibition of c-Src: did not inhibit
PKC
  inhibition of PKC: did not inhibit
MAP kinase
  inhibition of MAP kinase: did not inhibit
PI4 kinase
  inhibition of PI4 kinase: did not inhibit
PI3 kinase
  PI3 kinase activity: specifically abolished PI3 kinase activity

## Gamitrinib
GBM organotypic cultures; Gamitrinib added to PX-866-treated tumor organoids
  transcriptional changes induced by PI3K inhibition: largely reversed the transcriptional changes induced by PI3K inhibition
[1]
  reactivation of Akt induced by PI3K inhibition: prevented the reactivation of Akt
LN229 cells [2]
  tumor cell proliferation, Bliss independence analysis: synergistically inhibited tumor cell proliferation
LN229 cells [3]
  effect on anticancer activity of PI3K/Akt/MTOR pathway antagonists: potently enhanced the anticancer activity

## C=CCN(/C=C1/C(=O)O[C@H](COC)[C@@]2(C)C1=C(O)C(=O)C1=C2[C@H](OC(C)=O)C[C@]2(C)C(=O)CC[C@@H]12)CC=C [PX-866]
LN229 cells [4]
  metabolome profile: extensive metabolic reprogramming
PC3 or LN229 cells
  long-term colony forming ability: unaffected
CypD; immunoprecipitated from reconstituted LN229 cells
  phosphorylated Ser (pSer) reactivity of WT CypD: increased this response; also recorded: increased reactivity with an antibody to pSer
CypD; reconstituted cells, 10 μM for 48 h
  levels of endogenous or overexpressed CypD: did not affect
GBM organotypic cultures; PX-866 (10 μM) for 48 h, GBM organotypic cultures
  expression of kinome genes: increased the expression of genes associated with growth factor signaling
Akt phosphorylation
  Akt phosphorylation: induced Akt phosphorylation
LN229 or PC3 cells [5]; 10 μM for 48 h
  oxygen consumption: suppression of oxygen consumption
LN229 or PC3 cells [5]; [8]
  ATP production: reduced ATP production
  glucose utilization: less glucose utilization
  lactate production: less
LN229 or PC3 cells [6]; 10 μM
  cell cycle (DNA content): arrested in the G1 phase of the cell cycle
  proliferation (direct cell counting): reduced proliferation
LN229 or PC3 cells [6]; LN229 cells, 48 h
  viability (Trypan blue, MTT): without significant decrease in viability
[7]
  phosphorylation of Akt2 on Ser474: robust and concentration-dependent isoform-specific phosphorylation of Akt2 on Ser474
Tumor cells
  PML nuclear body number: higher PML nuclear body number
  senescence-associated β-galactosidase staining (SA-β-Gal): increased β-galactosidase staining
